# Laboratory results as given in ChEMBL document CHEMBL5500426, “Directly Suppressing MYC Function with Novel Alkynyl-Substituted Phenylpyrazole Derivatives that Induce Protein Degradation and Perturb MYC/MAX Interaction” (J Med Chem, 2024).
# Active and inactive are the calls of the source. The rule behind the calls is not given here.
# What was measured:
# [1] = test system: A549; test: Antiproliferative activity against human A549 cells assessed as inhibition of cell growth incubated for 72 hrs by MTT assay; format: functional, cell-based; settings: A549, 72 h
# [2] = test system: HepG2; test: Antiproliferative activity against human HepG2 cells assessed as inhibition of cell growth incubated for 72 hrs by MTT assay; format: functional, cell-based; settings: HepG2, 72 h
# [3] = Toxicity in FVB mouse implanted with mouse Myc-CaP cells assessed as body weight loss at 10 to 50 mg/kg,ip administrated daily for 14 consecutive days; format: organism-based; settings: in vivo, dose 10-50 mg/kg
# [4] = test system: PC-3; test: Antitumor activity against human PC-3 cells xenografted in BALB/C mouse assessed as tumor growth inhibition at 50 mg/kg,ip administrated daily for 21 consecutive days relative to control; format: functional; settings: read-out: TGI
# [5] = target: Myc proto-oncogene protein (Homo sapiens) (UniProt P01106); test: Inhibition of MYC in human PC-3 cells assessed as downregulation of MYC expression at 10 uM incubated for 24 hrs in presence of proteasome inhibitor MG132 by Western blotting analysis; format: cell-based
# [6] = test system: SK-OV-3; test: Antiproliferative activity against human SK-OV-3 cells assessed as inhibition of cell growth incubated for 72 hrs by MTT assay; format: functional, cell-based; settings: SK-OV-3, 72 h
# [7] = AUC (0 to t) in Sprague-Dawley rat at 2 mg/kg,iv administration by LC-MS/MS analysis; format: ADME, organism-based; settings: in vivo
# [8] = target: Myc proto-oncogene protein (Homo sapiens) (UniProt P01106); test: Binding affinity to MYC in human PC-3 cells assessed as decrease in melting temperature at 10 uM with 37 to 52 degreeC incubated for 1 hr by CETSA based Western blotting analysis; format: cell-based
# [9] = test system: PC-3; test: Antitumor activity against human PC-3 cells xenografted in BALB/C mouse assessed as reduction in tumor weight at ip administrated daily for 21 consecutive days; format: functional, organism-based
# [10] = Volume of distribution at steady state in Sprague-Dawley rat at 10 mg/kg,ip administration by LC-MS/MS analysis; format: ADME, organism-based; settings: in vivo
# [11] = test system: PC-3; test: Antiproliferative activity against human PC-3 cells assessed as inhibition of cell growth incubated for 72 hrs by MTT assay; format: functional, cell-based; settings: PC-3, 72 h
# [12] = Toxicity in BALB/C mouse xenografted with human PC-3 cells assessed as histopathological change in liver at 50 to 100 mg/kg,ip administrated daily for 21 consecutive days by hematoxylin and eosin staining based microscopic analysis; format: organism-based; settings: in vivo, dose 50-100 mg/kg
# [13] = target: Myc proto-oncogene protein (Homo sapiens) (UniProt P01106); test: Inhibition of MYC in human PC-3 cells assessed as downregulation of MYC expression at 1 uM incubated for 24 hrs by Western blotting analysis relative to control; format: cell-based
# [14] = test system: Myc-CaP; test: Antitumor activity against mouse Myc-CaP cells implanted in FVB mouse assessed as tumor growth inhibition at 10 mg/kg,ip administrated daily for 14 consecutive days relative to control; format: functional; settings: read-out: TGI
# Myc proto-oncogene protein (Homo sapiens), sequence (P01106 whole entry): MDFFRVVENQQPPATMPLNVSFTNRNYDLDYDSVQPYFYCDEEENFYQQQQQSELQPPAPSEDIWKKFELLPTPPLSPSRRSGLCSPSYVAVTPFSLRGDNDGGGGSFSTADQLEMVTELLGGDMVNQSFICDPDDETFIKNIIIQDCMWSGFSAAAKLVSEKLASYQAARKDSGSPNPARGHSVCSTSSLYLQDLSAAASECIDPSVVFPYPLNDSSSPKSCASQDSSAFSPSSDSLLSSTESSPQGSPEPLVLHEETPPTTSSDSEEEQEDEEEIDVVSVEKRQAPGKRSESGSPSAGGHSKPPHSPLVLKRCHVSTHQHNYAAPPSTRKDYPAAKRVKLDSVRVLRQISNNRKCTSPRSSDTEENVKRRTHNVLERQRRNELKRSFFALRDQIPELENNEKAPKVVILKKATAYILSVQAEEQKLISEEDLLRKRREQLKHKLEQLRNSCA
structure (smiles),measurement,setting,value
Oc1c(-c2cc(C(F)(F)F)n[nH]2)ccc(C#CCCN2CCOCC2)c1-c1ccc(Cl)c(C(F)(F)F)c1,IC50,[1],1240 nM
same,IC50,[2],1090 nM
same,Activity,[3],Non-Toxic
same,inhibition in vivo at 50 mg/kg,[4],33%
same,inhibition,[5],inactive
same,IC50,[6],1250 nM
same,AUC(0-t),[7],1400 ng·h/mL
same,Activity,[8],Active
same,Activity,[9],Dose-Dependent Effect
same,Vdss,[10],38.43 L/kg
same,IC50,[11],1270 nM
same,Activity,[12],Non-Toxic
same,inhibition,[13],> 50%
same,inhibition in vivo at 10 mg/kg,[14],37%
